These results are taken from paper PMC9164233 (ACS Organic & Inorganic Au, 2022).

What all share (test): Cell viability assay
Experiment [1] has as its system MCF10A cells. Format: cell-based. Particulars: Homo sapiens, MCF-10A, 72 h, read-out: Antiproliferative activity IC50, MCF10A.
The subject of experiment [2] is HMLER CD24^high/CD44^low cells. Format: cell-based. Particulars: Homo sapiens, Epithelial cell, 72 h, read-out: Antiproliferative activity IC50, HMLER CD24^high/CD44^low.
Experiment [3] concerns HMLER CD24^low/CD44^high cells. Format: cell-based, human. Particulars: 72 h.

On to `CC[C@@H](C(=O)[C@@H](C)[C@@H](O)[C@H](C)[C@@H]1O[C@@H]([C@@H](CC)C(=O)O)CC[C@@H]1C)[C@H]1O[C@]2(C=C[C@@H](O)[C@]3(CC[C@@](C)([C@H]4CC[C@](O)(CC)[C@H](C)O4)O3)O2)[C@H](C)C[C@@H]1C` [Sal, salinomycin], for which the IC50 came to 1130 ± 140 nM in experiment [1]; 4360 ± 500 nM in experiment [2]; 1390 ± 100 nM in experiment [3] (Homo sapiens, read-out: Antiproliferative activity IC50, HMLER CD24^low/CD44^high). The “SI (HMLER) = IC50(HMLER CD24^high/CD44^low)/IC50(HMLER CD24^low/CD44^high)” value in experiment [3] (selectivity for the mesenchymal state) was found to be 3.1.
